Entries after “also recorded” stand apart in the source; their conditions may differ.

One series concerns the target Mfd from E. coli (Escherichia coli, UniProt P30958). Briefly: Inhibition of Mfd ATPase activity in vitro (BIOMOL Green phosphate release). In kind it is biochemical. The conditions noted are these: for relative inhibition of E. coli Mfd ATPase activity with respect to the vehicle (DMSO): 100 μM compound, ATP 0.035 mM and 0.070 mM, FIG. 1. As for the experimental part: Mfd enzyme activity was evaluated by measuring the quantity of inorganic phosphate (PO4i) released using BIOMOL® Green reagent microtiter-plate assay (Enzo Life Sciences). Mfd from E. coli (0.35 μM) was incubated with DMSO or with the tested compounds at a concentration of 100 μM in DMSO, for 10 min at 37° C. ATPase reaction was measured in Tris pH8 0.05M; NaCl 0.3M; DTT 0.002M; MgCl2 0.0025M; DMSO 2%; containing ATP (at different concentrations between 0.0022 and 0.279 mM) for 30 min at 37° C. 50 μL of each reaction medium was transferred into clear, flat-bottom 96-well plates and the reaction was terminated by the addition of 100 μl of BIOMOL® Green reagent. The absorbance at 620 nm was measured in a microplate reader (Tecan). The absorbance values were then transformed into nmols of PO4i released based on a PO4i standard curve prepared as recommended by the supplier.
The potency of each compound is calculated relative to the vehicle DMSO control. Each point is the mean of duplicate experiments of N=2+/−SEM (Standard error of the Mean).
Mfd ATPase activity at ATP concentrations ranging from 0 to 0.279 mM was measured in the same conditions as described above, without and with presence of various doses of compound (Ia): 0 μM, 3 μM, 10 μM, 30 μM, 65 μM and 100 μM. Curves were fit to the Michaelis-Menten equation with the GraphPad PRISM software. Results are the mean of duplicate experiment of N=3-10+/−SEM.

The test system of series [1] is B. cereus (Bc 407). In words: Mouse systemic infection model, B. cereus bacterial load in organs. In kind it is in vivo, C57BL/6JRj mice. The settings on record: mice, B. cereus 4×10^6 CFU i.p., 12 mg/kg i.p., 6 h after infection; lung, liver and spleen; FIG. 8. As for the experimental part:
The efficiency of the compound of the invention (Ia) against a bacterial pathogen was assessed in a mouse model of infection (systemic infection model). Eight weeks old female C57BL/6JRj (Janvier Labs) mice were infected with B. cereus (Bc 407) (4×10^6 CFU) by intraperitoneal injection (100 μL). 100 μl of compound of the invention (Ia) in DMSO at a dose of 12 mg/kg, or of the vehicle alone (DMSO), were further injected to the mice by intraperitoneal injection. 6 h after the infection mice were sacrificed by cervical dislocation. Mice organs were collected and homogenized in cold Phosphate Buffered Saline (PBS). Bacteria burdens in organs were determined by plating serially dilution of the homogenate on LB agar media. The results obtained are shown on FIG. 8 in a/ for the lung, in b/ for the liver and in c/ for the spleen. In these figures, the data are represented as mean+/−SEM from 3 different experiments with 6-8 mice per group. Each point represents one animal.

Series [2] relates to Pseudomonas aeruginosa (CIP27853). Briefly: Survival of silkworm larvae infected with P. aeruginosa. The settings on record: Bombyx mori larvae, P. aeruginosa 1×10^4 CFU, 0.3 to 5.5 μg/g injected with the bacteria, 24 h at 27° C.; effect at higher doses; FIG. 7. In kind it is in vivo.
For a further series, the system named is Bombyx mori larvae. In words: Toxicity towards silkworm larvae. In kind it is in vivo. The settings on record: 0.3 to 5.5 μg/g injected.
A further series concerns A. baumannii (CIP7034). In words: Antimicrobial activity during nitric oxide stress, A. baumannii. In kind it is cell-based, Acinetobacter baumannii. The conditions noted are these: A. baumanii, 4 h at 37° C. under nitric oxide stress, 10 to 200 μM; FIG. 5. As for the experimental part:
(§1) The power of compound (Ia) to inhibit bacterial growth, specifically in the presence of in vitro-produced nitric oxide, is measured for different bacterial species: Bacillus cereus and two antibiotherapy challenging bacteria, regarding medical interest and therapeutic needs, namely Klebsiella pneumoniae and Acinetobacter baumannii.
(§2) Gram-positive B. cereus (Bc 407) and Gram-negative K. pneumoniae (CIP700603) and A. baumannii (CIP7034) strains were grown to exponential phase in Luria-Bertani (LB) medium. Bacteria solution were prepared in Roswell Park Memorial Institute (RPMI) medium and 150 μL were dispatched into 96-wells plate. To measure effect of compound (Ia), bacteria were exposed to 50 μL of NO at a concentration that induces a survival below 90% compared to the condition without NO, in absence (0 μM) or presence (at a dose ranging from 10 to 200 μM) of compound (Ia).
(§3) Bacteria survival rate was quantified after 4 h at 37° C. by normalizing bacterial load in (Ia)-treated samples against that in DMSO-treated samples (0 μM of (Ia)).
(§4) The results obtained are shown in FIG. 3 for B. cereus, in FIG. 4 for K. pneumoniae and in FIG. 5 for A. baumanii. In these bar graphs the data represent the mean of duplicate experiment of N=3/12+/−SEM. Two-tailed t-student tests are employed to investigate statistical differences, using GraphPad Prism.

Series [3] concerns K. pneumoniae (CIP700603). Briefly: Antimicrobial activity during nitric oxide stress, K. pneumoniae. In kind it is cell-based, Klebsiella pneumoniae. The conditions noted are these: 4 h at 37° C. under nitric oxide stress, 10 to 200 μM, FIG. 4. As for the experimental part: as §1, §2, §3, §4
Series [4] deals with B. cereus (Bc 407). Briefly: Antimicrobial activity during nitric oxide stress, B. cereus. The conditions noted are these: 4 h at 37° C. under nitric oxide stress, 10 to 200 μM, FIG. 3. In kind it is cell-based, Bacillus cereus. As for the experimental part:
as §1, §2, §3, §4

For another series, the system named is Bacillus cereus (Bc 407). Briefly: Survival of silkworm larvae infected with B. cereus. In kind it is in vivo. The settings on record: Bombyx mori larvae, B. cereus 1×10^2 CFU, 0.3 to 5.5 μg/g injected with the bacteria, 24 h at 27° C.; FIG. 6.

Mfd from E. coli, sequence (P30958 whole entry): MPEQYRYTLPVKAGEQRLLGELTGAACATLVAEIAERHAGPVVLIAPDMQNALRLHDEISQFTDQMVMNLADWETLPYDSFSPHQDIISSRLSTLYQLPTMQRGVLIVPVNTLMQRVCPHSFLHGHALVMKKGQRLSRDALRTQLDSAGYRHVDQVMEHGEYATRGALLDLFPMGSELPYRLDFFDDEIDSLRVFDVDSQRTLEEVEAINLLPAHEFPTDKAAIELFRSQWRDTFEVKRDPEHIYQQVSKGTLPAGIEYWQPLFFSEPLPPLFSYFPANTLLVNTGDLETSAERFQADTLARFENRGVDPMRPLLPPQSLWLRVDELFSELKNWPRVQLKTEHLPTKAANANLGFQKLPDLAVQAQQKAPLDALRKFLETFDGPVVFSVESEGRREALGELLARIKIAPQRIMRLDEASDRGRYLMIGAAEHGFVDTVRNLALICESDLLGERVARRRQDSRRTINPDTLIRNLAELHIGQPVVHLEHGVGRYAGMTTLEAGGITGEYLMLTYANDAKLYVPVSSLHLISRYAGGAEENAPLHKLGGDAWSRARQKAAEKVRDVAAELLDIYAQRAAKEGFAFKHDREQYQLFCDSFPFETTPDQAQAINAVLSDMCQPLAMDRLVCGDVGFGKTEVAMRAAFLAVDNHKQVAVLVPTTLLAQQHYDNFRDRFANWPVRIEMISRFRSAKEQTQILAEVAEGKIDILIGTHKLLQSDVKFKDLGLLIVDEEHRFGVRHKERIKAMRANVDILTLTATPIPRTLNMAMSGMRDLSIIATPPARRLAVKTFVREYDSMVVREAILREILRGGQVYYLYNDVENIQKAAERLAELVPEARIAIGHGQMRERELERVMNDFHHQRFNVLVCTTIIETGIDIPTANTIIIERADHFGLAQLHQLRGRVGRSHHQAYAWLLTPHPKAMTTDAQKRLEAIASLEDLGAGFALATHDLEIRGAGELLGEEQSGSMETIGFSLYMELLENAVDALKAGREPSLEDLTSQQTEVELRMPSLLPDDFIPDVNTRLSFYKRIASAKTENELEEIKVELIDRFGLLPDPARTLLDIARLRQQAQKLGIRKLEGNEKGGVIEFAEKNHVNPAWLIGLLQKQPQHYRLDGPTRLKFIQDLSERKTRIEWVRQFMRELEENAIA

For `O=c1[nH]c2ccccc2n1C1CCN(c2ccc(S(=O)(=O)N3CCCCC3)cn2)CC1` [compound (Ib)], at Mfd from E. coli, the “relative inhibition of E. coli Mfd ATPase activity with respect to the vehicle (DMSO)” value was “much higher capacity of inhibition of the Mfd ATPase activity than the comparative compounds”.
For the compound `CN(C)S(=O)(=O)c1ccc(S(=O)(=O)N2CCC(n3c(=O)[nH]c4ccccc43)CC2)cc1` [compound (Ia), N,N-dimethyl-4-{[4-(2-oxo-2,3-dihydro-1H-1,3-benzodiazol-1-yl)piperidin-1-yl]sulfonyl}benzene-1-sulfonamide], the “bacterial load in organs” value in the series with B. cereus (Bc 407) [1] is reported as “decreases the bacterial load in all these organs”. In addition, the “survival of infected larvae (protective effect)” value (in series [2]; in the series on Bacillus cereus (Bc 407)) was “significant protective effect” in each case. In addition, the “toxicity towards the insects” value with Bombyx mori larvae is “no toxicity towards the insects”. Further, the “bacteria survival / resistance to NO in vitro” value (in the series on A. baumannii (CIP7034); in series [3]; with B. cereus (Bc 407) [4]) was “reduces bacteria resistance to NO in vitro” in each case. The “mode of inhibition of Mfd ATPase activity” value at Mfd from E. coli (0-100 μM (Ia), ATP 0 to 0.279 mM, Michaelis-Menten fit, FIG. 2) was “competitive inhibitor of Mfd ATPase activity”. Besides, the “relative inhibition of E. coli Mfd ATPase activity with respect to the vehicle (DMSO)” value on Mfd from E. coli was “much higher capacity of inhibition of the Mfd ATPase activity than the comparative compounds; also recorded: more efficient than compound (Ib)”.

For the origin of these results see US12583834B2, “Method of treating bacterial infections and pharmaceutical composition for treating bacterial infections” (Institut National de Recherche pour l'Agriculture, …, priority 2020, dated 2026).
